These results are taken from PMC11384906, “PAR1-mediated Non-periodical Synchronized Calcium Oscillations in Human Mesangial Cells” (Function, 2024).

The subject of assay [1] is freshly isolated Wistar rat glomeruli. As to conditions: Ang II 60 µM, acute application; text b29 words it 'up to'.
Excerpt: Sixteen-week Wistar Kyoto male rats were obtained from Charles River and were kept in a light-controlled environment with a 12:12-h light/dark cycle and given free access to water (filtered, RO water) and food (5V75-PicoLab Verified 75 IF, LabDiet, USA).
Briefly, male Wistar rat kidneys were harvested, decapsulated, and used to isolate glomeruli by differential sieving. Freshly isolated glomeruli were collected and stored on ice in a 15-mL tube with a 5% BSA (Sigma-Aldrich, # A8327)/RPMI-1640 solution with non-permeable 150 kDa TRITC-dextran (1 mg/mL, TdB Labs, #TD150, Uppsala, Sweden). […] Glomeruli were attached to poly-L-lysine covered glass-bottom dishes and covered with the extracellular solution containing 150 kDa TRITC dextran. Z-stacks with 18 consecutive focal planes (3 µm each) were collected every 1 min, allowing glomeruli volume reconstruction. Output files were imported into Imaris Software (Oxford Bitplane, version 9.6.1), reconstructed in 3D, and processed to calculate glomerular volume.
The test system of assay [2] is vascular smooth muscle cells. The settings on record: cited from earlier work.
Another assay has as its system endothelial cells. As to conditions: cited from earlier work.
In a further assay the test system is monocytes. As to conditions: cited from earlier work.
The test system of the next assay is mesangial cells. As to conditions: cited from earlier work.
The next assay relates to MCs. As to conditions: cited from earlier work.
For the next assay, the system named is neuronal cells. As to conditions: cited from earlier work.
The next assay relates to platelets. As to conditions: cited from earlier work.

Consider Angiotensin II [Ang II], for which the Glomerular volume reduction in assay [1] is 20.7%.

On to thrombin, for which the “Thrombin concentration required to activate vascular smooth muscle cells” value in assay [2] was 0.5 to 2 U/mL. Also, the “Thrombin concentration required to activate endothelial cells” value in the assay on endothelial cells was 0.5 to 2 U/mL. Moreover, the “Thrombin concentration required to activate intracellular Ca2+ signaling” value with monocytes and with neuronal cells was 1-5 U/mL each time. Further, the “Concentration at which significant Ca2+ response was detected” value in the assay with mesangial cells is recorded as “around 0.1 U/mL”. The “Concentration at which significant Ca2+ response was detected (molar equivalent)” value in the assay on mesangial cells (equivalent of 0.1 U/mL) is “approximately 1 nM”. In the assay with MCs, the “Effect on MC proliferation and synthesis” value was “stimulate MC proliferation and synthesis of prostaglandins, nitric oxide, endothelin-1, extracellular matrix components, and chemokines”. The “Thrombin concentration sufficient to induce Ca2+ mobilization” value in the assay on platelets is 0.1 to 1 U/mL.
